We go through one sequence from patent publication US5734015A, “Family of linear antimicrobial peptides from hagfish intestine” (Magainin Pharmaceuticals Inc., priority 1996, dated 1998).

Experiment in all cases: Antibiotic activity, MIC by standard methodology
Holding throughout (assay type): cell-based

The subject of one experiment is P. aeruginosa. An excerpt: (§1) Chemical synthesis of the sequence (SEQ ID NO. 4) corresponding to Peptides 1 and 2 (SEQ ID NOS: 1 and 2 respectively) containing native (unmodified) tryptophan was achieved by SPPS, using Fmoc chemistry.
Another experiment deals with S. aureus.
Excerpt: as §1

The test system of a further experiment is C. albicans.
Excerpt: as §1

In another experiment the test system is E. coli.
Excerpt: as §1

No end group written: not given here.

Turning to “GFFKKAWRKVKHAGRRVLDTAKGVGRHYVNNWLNRYR [SEQ ID NO. 4]”, the “minimum inhibitory concentration (MIC)” value was 8 mg/L in the experiment with P. aeruginosa, 8 mg/L in the experiment on S. aureus, more than 256 mg/L in the experiment with C. albicans and 8 mg/L in the experiment with E. coli.
